In brackets after ≈: the same amount, converted by molar mass.
Legend:
Pseudomonas aeruginosa = test: Antibacterial activity against Pseudomonas aeruginosa ATCC 27853 incubated for 16 to 18 hrs by broth microdilution assay; type: functional
Acinetobacter baumannii = test: Antibacterial activity against Acinetobacter baumannii BAA1605 incubated for 16 to 18 hrs by broth microdilution assay; type: functional
[1] = test system: Mycobacterium tuberculosis; test: Antitubercular activity against Mycobacterium tuberculosis H37Rv after 7 days by resazurin dye based assay; type: functional; conditions: 168 h
Staphylococcus aureus [2] = test: Antibacterial activity against Staphylococcus aureus ATCC 29213 incubated for 16 to 18 hrs by broth microdilution assay; type: functional
Klebsiella pneumoniae = test: Antibacterial activity against Klebsiella pneumoniae ATCC BAA-1705 incubated for 16 to 18 hrs by broth microdilution assay; type: functional
Escherichia coli = test: Antibacterial activity against Escherichia coli ATCC 25922 incubated for 16 to 18 hrs by broth microdilution assay; type: functional
[3] = Cytotoxicity against African green monkey Vero cells assessed as reduction in cell viability after 72 hrs by MTT assay; type: cell-based; conditions: chlorocebus sabaeus
[4] = Selectivity index, ratio of CC50 for African green monkey Vero cells to MIC for Staphylococcus aureus ATCC 29213; type: toxicity; conditions: read-out: Selectivity Index
[5] = Selectivity index, ratio of CC50 for African green monkey Vero cells to MIC for Mycobacterium tuberculosis H37Rv; type: toxicity; conditions: read-out: Selectivity Index
Staphylococcus aureus [6] = test: Antibacterial activity against vancomycin-resistant Staphylococcus aureus VRS1 incubated for 16 to 18 hrs by broth microdilution assay; type: functional
Staphylococcus aureus [7] = test: Antibacterial activity against methicillin-resistant Staphylococcus aureus NR10194 incubated for 16 to 18 hrs by broth microdilution assay; type: functional
Staphylococcus aureus [8] = test: Antibacterial activity against Staphylococcus aureus ATCC 29213 assessed as post antibiotic effect time at MIC incubated for 1 hr followed by compound washout and measured at 1 hr intervals (reference value: 0 hrs); type: functional
Staphylococcus aureus [9] = test: Antibacterial activity against methicillin-resistant Staphylococcus aureus NR10191 incubated for 16 to 18 hrs by broth microdilution assay; type: functional
Staphylococcus aureus [10] = test: Antibacterial activity against Staphylococcus aureus ATCC 29213 assessed as time required to increase 1 log10 CFU at MIC incubated for 1 hr followed by compound washout and measured at 1 hr intervals (reference value: 2 hrs); type: functional
Staphylococcus aureus [11] = test: Antibacterial activity against methicillin-resistant Staphylococcus aureus NR119 incubated for 16 to 18 hrs by broth microdilution assay; type: functional
Staphylococcus aureus [12] = test: Antibacterial activity against methicillin-resistant Staphylococcus aureus NR100 incubated for 16 to 18 hrs by broth microdilution assay; type: functional
Staphylococcus aureus [13] = test: Antibacterial activity against methicillin-resistant Staphylococcus aureus NR10192 incubated for 16 to 18 hrs by broth microdilution assay; type: functional
Staphylococcus aureus [14] = test: Antibacterial activity against Staphylococcus aureus ATCC 29213 assessed as time required to increase 1 log10 CFU at 10 times MIC incubated for 1 hr followed by compound washout and measured at 1 hr intervals (reference value: 2 hrs); type: functional
Staphylococcus aureus [15] = test: Antibacterial activity against methicillin-resistant Staphylococcus aureus NR10198 incubated for 16 to 18 hrs by broth microdilution assay; type: functional
Staphylococcus aureus [16] = test: Antibacterial activity against methicillin-resistant Staphylococcus aureus NR10186 incubated for 16 to 18 hrs by broth microdilution assay; type: functional
Staphylococcus aureus [17] = test: Antibacterial activity against methicillin-resistant Staphylococcus aureus NR10193 incubated for 16 to 18 hrs by broth microdilution assay; type: functional
Staphylococcus aureus [18] = test: Antibacterial activity against methicillin-resistant Staphylococcus aureus NR10129 incubated for 16 to 18 hrs by broth microdilution assay; type: functional
Staphylococcus aureus [19] = test: Antibacterial activity against vancomycin-resistant Staphylococcus aureus VRS4 incubated for 16 to 18 hrs by broth microdilution assay; type: functional
Staphylococcus aureus [20] = test: Antibacterial activity against Staphylococcus aureus ATCC 29213 assessed as post antibiotic effect time at 10 times MIC incubated for 1 hr followed by compound washout and measured at 1 hr intervals (reference value: 0 hrs); type: functional
Staphylococcus aureus [21] = test: Antibacterial activity against vancomycin-resistant Staphylococcus aureus VRS12 incubated for 16 to 18 hrs by broth microdilution assay; type: functional
Staphylococcus aureus [22] = test: Antibiofilm activity against Staphylococcus aureus ATCC 29213 at 10 times MIC incubated 48 hrs by crystal violet staining based assay relative to control; type: functional
Staphylococcus aureus [23] = test: Antibacterial activity against methicillin-susceptible Staphylococcus aureus ATCC 29213 incubated for 16 to 18 hrs by broth microdilution assay; type: functional

C#Cc1cccc(-n2c(/C=C/c3ccc(C#N)cc3)nc3cccc(F)c3c2=O)c1
MIC (Pseudomonas aeruginosa): > 64 µg/mL
MIC (Acinetobacter baumannii): > 64 µg/mL
MIC [1]: > 64 µg/mL
MIC (Staphylococcus aureus [2]): 0.25 µg/mL (≈ 0.639 µM)
MIC (Klebsiella pneumoniae): > 64 µg/mL
MIC (Escherichia coli): > 64 µg/mL
CC50 at 72 h [3]: > 10 µg/mL
selectivity ratio [4]: > 40

Cc1nc2ccc(OCc3cn(-c4cccc(Cl)c4)nn3)cc2c(=O)n1-c1ccccc1
MIC (Pseudomonas aeruginosa): > 64 µg/mL
MIC (Acinetobacter baumannii): > 64 µg/mL
MIC [1]: 16 µg/mL (≈ 36 µM)
MIC (Staphylococcus aureus [2]): > 64 µg/mL
selectivity ratio [5]: > 6.25
MIC (Klebsiella pneumoniae): > 64 µg/mL
MIC (Escherichia coli): > 64 µg/mL
CC50 at 72 h [3]: > 100 µg/mL

C[C@H]1COc2c(N3CCN(C)CC3)c(F)cc3c(=O)c(C(=O)O)cn1c23.C[C@H]1COc2c(N3CCN(C)CC3)c(F)cc3c(=O)c(C(=O)O)cn1c23.O [LEVOFLOXACIN]
MIC (Staphylococcus aureus [6]): 32 µg/mL
MIC (Pseudomonas aeruginosa): 0.5 µg/mL
MIC (Staphylococcus aureus [7]): 0.5 µg/mL
Time (Staphylococcus aureus [8]): 1 h
MIC (Staphylococcus aureus [9]): 16 to 32 µg/mL
MIC (Staphylococcus aureus [2]): 0.125 to 0.25 µg/mL
Time (Staphylococcus aureus [10]): 3 h
MIC (Staphylococcus aureus [11]): 16 µg/mL
MIC (Staphylococcus aureus [12]): < 0.5 µg/mL
MIC (Staphylococcus aureus [13]): 4 to 8 µg/mL
Time (Staphylococcus aureus [14]): 3 h
MIC (Staphylococcus aureus [15]): 32 µg/mL
MIC (Staphylococcus aureus [16]): 4 to 8 µg/mL
MIC (Staphylococcus aureus [17]): 32 µg/mL
MIC (Staphylococcus aureus [18]): 0.5 µg/mL
MIC (Klebsiella pneumoniae): 64 µg/mL
MIC (Staphylococcus aureus [19]): > 64 µg/mL
Time (Staphylococcus aureus [20]): 1 h
MIC (Staphylococcus aureus [21]): 32 to 64 µg/mL
Activity (Staphylococcus aureus [22]): 30.6%
MIC (Staphylococcus aureus [23]): < 0.5 µg/mL

N#Cc1ccc(/C=C/c2nc3ncccc3c(=O)n2-c2ccc(S)cc2)cc1
MIC (Pseudomonas aeruginosa): > 64 µg/mL
MIC (Acinetobacter baumannii): > 64 µg/mL
MIC [1]: > 64 µg/mL
MIC (Staphylococcus aureus [2]): 2 µg/mL (≈ 5.23 µM)
MIC (Klebsiella pneumoniae): > 64 µg/mL
MIC (Escherichia coli): > 64 µg/mL
CC50 at 72 h [3]: > 10 µg/mL
selectivity ratio [4]: > 5

C#CCOc1cccc(-n2c(/C=C/c3ccc(C#N)cc3)nc3cccc(F)c3c2=O)c1
MIC (Pseudomonas aeruginosa): > 64 µg/mL
MIC (Acinetobacter baumannii): > 64 µg/mL
MIC [1]: 2 µg/mL (≈ 4.75 µM)
MIC (Staphylococcus aureus [2]): 0.5 µg/mL (≈ 1.19 µM)
selectivity ratio [5]: > 5
MIC (Klebsiella pneumoniae): > 64 µg/mL
MIC (Escherichia coli): > 64 µg/mL
CC50 at 72 h [3]: 5 to 10 µg/mL (≈ 11.9 to 23.7 µM)
selectivity ratio [4]: > 10

Cc1nc2cc(-c3ccc(F)cc3)ccc2c(=O)n1-c1cccc(Cl)c1
MIC (Pseudomonas aeruginosa): > 64 µg/mL
MIC (Acinetobacter baumannii): > 64 µg/mL
MIC [1]: 16 µg/mL (≈ 43.9 µM)
MIC (Staphylococcus aureus [2]): > 64 µg/mL
selectivity ratio [5]: > 0.93
MIC (Klebsiella pneumoniae): > 64 µg/mL
MIC (Escherichia coli): > 64 µg/mL
CC50 at 72 h [3]: > 15 µg/mL

N#Cc1ccc(/C=C/c2nc3ncccc3c(=O)n2-c2cccc(C#N)c2)cc1
MIC (Pseudomonas aeruginosa): > 64 µg/mL
MIC (Acinetobacter baumannii): > 64 µg/mL
MIC [1]: > 64 µg/mL
MIC (Staphylococcus aureus [2]): > 64 µg/mL
MIC (Klebsiella pneumoniae): > 64 µg/mL
MIC (Escherichia coli): > 64 µg/mL

COc1cc(-n2cc(COc3ccc4nc(C)n(-c5ccccc5)c(=O)c4c3)nn2)cc(OC)c1OC
MIC (Pseudomonas aeruginosa): > 64 µg/mL
MIC (Acinetobacter baumannii): > 64 µg/mL
MIC [1]: > 64 µg/mL
MIC (Staphylococcus aureus [2]): > 64 µg/mL
MIC (Klebsiella pneumoniae): > 64 µg/mL
MIC (Escherichia coli): > 64 µg/mL

Cc1cccc(-n2c(/C=C/c3ccc(C#N)cc3)nc3ncccc3c2=O)c1C
MIC (Pseudomonas aeruginosa): > 64 µg/mL
MIC (Acinetobacter baumannii): > 64 µg/mL
MIC [1]: > 64 µg/mL
MIC (Staphylococcus aureus [2]): > 64 µg/mL
MIC (Klebsiella pneumoniae): > 64 µg/mL
MIC (Escherichia coli): > 64 µg/mL

Cc1nc2ccc(OCc3cn(-c4ccc(Cl)cc4)nn3)cc2c(=O)n1-c1ccccc1
MIC (Pseudomonas aeruginosa): > 64 µg/mL
MIC (Acinetobacter baumannii): > 64 µg/mL
MIC [1]: 16 µg/mL (≈ 36 µM)
MIC (Staphylococcus aureus [2]): > 64 µg/mL
selectivity ratio [5]: > 2.08
MIC (Klebsiella pneumoniae): > 64 µg/mL
MIC (Escherichia coli): > 64 µg/mL
CC50 at 72 h [3]: > 33.3 µg/mL

C[C@@H](O)[C@H]1C(=O)N2C(C(=O)O)=C(S[C@@H]3CN[C@H](C(=O)N(C)C)C3)[C@H](C)[C@H]12 [MEROPENEM]
MIC (Staphylococcus aureus [6]): > 64 µg/mL
MIC (Staphylococcus aureus [7]): 0.5 µg/mL (≈ 1.3 µM)
MIC (Staphylococcus aureus [9]): > 64 µg/mL
MIC (Staphylococcus aureus [2]): 0.25 µg/mL (≈ 0.652 µM)
MIC (Staphylococcus aureus [11]): > 64 µg/mL
MIC (Staphylococcus aureus [12]): > 64 µg/mL
MIC (Staphylococcus aureus [13]): 4 to 8 µg/mL (≈ 10.4 to 20.9 µM)
MIC (Staphylococcus aureus [15]): 32 µg/mL (≈ 83.4 µM)
MIC (Staphylococcus aureus [16]): 16 to 32 µg/mL (≈ 41.7 to 83.4 µM)
MIC (Staphylococcus aureus [17]): 32 µg/mL (≈ 83.4 µM)
MIC (Staphylococcus aureus [18]): 16 µg/mL (≈ 41.7 µM)
MIC (Staphylococcus aureus [19]): > 64 µg/mL
MIC (Staphylococcus aureus [21]): > 64 µg/mL
MIC (Staphylococcus aureus [23]): < 0.5 µg/mL

From ChEMBL document CHEMBL4393707, “Synthesis and evaluation of new quinazolin-4(3H)-one derivatives as potent antibacterial agents against multidrug resistant Staphylococcus aureus and Mycobacterium tuberculosis” (Eur J Med Chem, 2019)
